From article PMC3539823 (Journal of medicinal chemistry, 2012)

Experiments:
GLS = molecular target: T1, GLS (Homo sapiens, UniProt O94925); conditions: previously reported; cited from earlier work
T1 sequence (O94925 124-669 limits assumed): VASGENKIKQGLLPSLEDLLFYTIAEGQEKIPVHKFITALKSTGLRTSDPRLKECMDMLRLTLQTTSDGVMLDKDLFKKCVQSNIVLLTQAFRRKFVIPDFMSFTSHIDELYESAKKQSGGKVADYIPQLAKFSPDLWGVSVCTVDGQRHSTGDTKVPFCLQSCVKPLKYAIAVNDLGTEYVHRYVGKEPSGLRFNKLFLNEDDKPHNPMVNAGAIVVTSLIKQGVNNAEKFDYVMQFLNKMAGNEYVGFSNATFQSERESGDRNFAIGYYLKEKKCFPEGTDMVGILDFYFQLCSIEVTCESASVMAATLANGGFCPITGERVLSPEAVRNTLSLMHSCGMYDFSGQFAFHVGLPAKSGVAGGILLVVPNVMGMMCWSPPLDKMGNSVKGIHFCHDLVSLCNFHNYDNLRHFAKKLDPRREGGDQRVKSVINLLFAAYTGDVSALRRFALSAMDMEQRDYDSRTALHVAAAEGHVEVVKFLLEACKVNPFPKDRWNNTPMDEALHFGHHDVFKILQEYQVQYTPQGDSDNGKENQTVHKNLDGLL

[1] = mouse liver microsomes, phase I
[2] = system: P493 human lymphoma B cells; assay: P493 cell proliferation assay; format: cell-based; conditions: P493-6, read-out: IC50 (growth of P493 cells)

## Nc1nnc(CCSCCc2nnc(N)s2)s1 [Compound 5, Bis-[2-(5-Amino-[1,3,4]thiadiazol-2-yl)-ethylsulfide]]
GLS
  fold increase in IC50 value from 3 to 5: 50 fold

## Nc1nnc(CCCCc2nnc(NC(=O)Cc3ccccc3)s2)s1 [Compound 11b, N-(5-(4-(5-amino-1,3,4-thiadiazol-2-yl)butyl)-1,3,4-thiadiazol-2-yl)-2-phenylacetamide]
[1]
  stability against microsomes in the presence of NADPH: completely stable

## O=C(CCCCc1nnc(NC(=O)Cc2ccccc2)s1)NCCN1CCCC1 [Compound 29a, 5-(5-(2-phenylacetamido)-1,3,4-thiadiazol-2-yl)-N-(2-(pyrrolidin-1-yl)ethyl)pentanamide]
[2]
  IC50: ~40 µM
[1]
  stability against microsomes in the presence of NADPH: completely stable
